“Also recorded” adds a separate entry of the source.
Tests used:
Type in all cases: biochemical
[1] = biological target: T1, hS1P2 (Homo sapiens, UniProt O95136); assay: [γ-35S]GTP binding assay, HEK293T cell membranes, S1P2; conditions: GTPγS binding; for EC50: read-out: EC50 Values (nM) for S1P Analogues at Recombinant S1P Receptors, hS1P2, overexpressed human HEK293 cells
T1 construct: expressed in transfected cells; host or cells: HEK293T cells (transient)
Description: (§1) Human or mouse S1P5 DNA was mixed with an equal amount of DNA encoding a rat Gi2R protein as well as DNAs encoding cow β1 and γ2 proteins and used to transfect monolayers of HEK293T cells using the calcium phosphate precipitate method. After 60 hours, cells were harvested, and microsomes were prepared, aliquoted, and stored at −70° C. until use.
(§2) After incubating for 30 minutes at 30° C., bound radionuclide was separated from free by filtration through Whatman GF/C paper using a Brandel Cell Harvester (Gaithersburg, Md.).
(§3) Assay of cAMP accumulation was performed as described previously (See Im et al., J. Biol. Chem. 275, 14281-14286 (2000), the disclosure of which is incorporated herein). Assays were conducted on populations of 5×10^5 cells stimulated with 1 μM forskolin in the presence of the phosphodiesterase inhibitor isomethylbutylxanthine (IBMX, 1 mM) for 15 minutes. cAMP was measured by automated radioimmunoassay. The GTPγS studies were performed using zebrafish S1P1 overexpressed rat RH-7777 and human hS1P1, hS1P2, hS1P3 and hS1P5 overexpressed human HEK293 cells.
(§4) An additional series of compounds was tested using the GTPCS binding assay described in Example 2 and in Im et al., J. Biol. Chem. 275, 14281-14286 (2000), the disclosure of which is incorporated herein).

[2] = biological target: T2, hS1P3 (Homo sapiens, UniProt Q99500); assay: [γ-35S]GTP binding assay, HEK293T cell membranes, S1P3; conditions: GTPγS binding; for EC50: read-out: EC50 Values (nM) for S1P Analogues at Recombinant S1P Receptors, hS1P3, overexpressed human HEK293 cells
T2 construct: expressed in transfected cells; host or cells: HEK293T cells (transient)
Description: as §1, §2, §3, §4

[3] = test system: T3, S1P receptors; assay: [γ-35S]GTP binding assay, recombinant S1P receptors in general; conditions: various S1P receptors
T3 construct: other: various S1P receptors
Description: (§5) The same results were obtained regardless of whether the recombinant receptor used exogenous G proteins (HEK293T cells) or endogenous G proteins (RH7777 cells). In addition, insect Sf9 cells infected with recombinant baculovirus encoding receptors (e.g. […] The Sf9 cell and HEK293T cell membranes gave similar results. Furthermore, the activities measured in the broken cell assay predicted the responses seen in whole cell assays. […] After incubating for 30 minutes at 30° C., bound radionuclide was separated from free by filtration through Whatman GF/C paper using a Brandel Cell Harvester (Gaithersburg, Md.). Assay of cAMP accumulation was performed as described previously (See Im et al., J. Biol. […] Assays were conducted on populations of 5×10^5 cells stimulated with 1 μM forskolin in the presence of the phosphodiesterase inhibitor isomethylbutylxanthine (IBMX, 1 mM) for 15 minutes. cAMP was measured by automated radioimmunoassay.

[4] = biological target: T4, hS1P4 (Homo sapiens, UniProt O95977); assay: [γ-35S]GTP binding assay, HEK293T cell membranes, S1P4; conditions: GTPγS binding
T4 construct: expressed in transfected cells; host or cells: HEK293T cells (transient)
T4 sequence (O95977 1-384): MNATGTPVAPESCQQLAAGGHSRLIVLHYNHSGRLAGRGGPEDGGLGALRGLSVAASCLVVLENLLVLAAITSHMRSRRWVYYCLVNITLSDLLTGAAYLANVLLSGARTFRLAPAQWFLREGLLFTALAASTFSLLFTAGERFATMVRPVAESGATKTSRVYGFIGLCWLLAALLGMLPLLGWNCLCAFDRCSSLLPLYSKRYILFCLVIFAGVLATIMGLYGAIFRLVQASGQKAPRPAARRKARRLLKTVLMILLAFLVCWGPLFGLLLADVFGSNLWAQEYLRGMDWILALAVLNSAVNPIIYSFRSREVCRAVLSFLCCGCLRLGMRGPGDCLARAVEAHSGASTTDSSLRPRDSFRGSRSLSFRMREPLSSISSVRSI
Description: as §2, §4

[5] = biological target: T5, zS1P1 (Danio rerio, UniProt Q9DDK4); assay: [γ-35S]GTP binding assay, zebrafish S1P1 overexpressed in rat RH-7777 cells; conditions: read-out: EC50 Values (nM) for S1P Analogues at Recombinant S1P Receptors, zS1P1; GTPγS binding; zebrafish S1P1 overexpressed rat RH-7777
T5 construct: expressed in transfected cells; host or cells: rat hepatoma RH-7777 cells
T5 sequence (Q9DDK4 1-362): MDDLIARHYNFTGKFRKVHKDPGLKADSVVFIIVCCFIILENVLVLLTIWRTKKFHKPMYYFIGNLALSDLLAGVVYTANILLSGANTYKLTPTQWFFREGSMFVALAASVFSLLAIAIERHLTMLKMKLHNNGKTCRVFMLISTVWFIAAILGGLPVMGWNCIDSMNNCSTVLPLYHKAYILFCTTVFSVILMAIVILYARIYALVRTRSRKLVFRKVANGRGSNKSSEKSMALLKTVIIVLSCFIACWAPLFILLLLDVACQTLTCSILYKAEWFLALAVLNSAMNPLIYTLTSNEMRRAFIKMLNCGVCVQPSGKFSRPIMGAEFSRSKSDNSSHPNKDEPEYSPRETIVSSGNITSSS
Description: as §2
Rat hepatoma RH7777 cell monolayers were transfected with human or mouse S1P5/pCR3.1 DNA using the calcium phosphate precipitate method, and clonal populations expressing the neomycin phosphotransferase gene were selected by addition of geneticin (G418) to the culture medium. The RH7777 cells were grown in monolayers at 37° C. in a 5% CO2/95% air atmosphere in growth medium consisting of 90% MEM, […], 2 mM glutamine, and 1 mM sodium pyruvate.
as §3

[6] = biological target: T6, mS1P5 (Mus musculus, UniProt Q91X56); assay: [γ-35S]GTP binding assay, mouse S1P5; conditions: read-out: EC50 Values (nM) for S1P Analogues at Recombinant S1P Receptors, mS1P5, GTPγS binding
T6 construct: expressed in transfected cells; host or cells: HEK293T cells (transient)
Description: as §1, §2, §3

[7] = biological target: T7, hS1P1 (Homo sapiens, UniProt P21453); assay: [γ-35S]GTP binding assay, HEK293T cell membranes, S1P1; conditions: GTPγS binding; for EC50: read-out: EC50 Values (nM) for S1P Analogues at Recombinant S1P Receptors, hS1P1, overexpressed human HEK293 cells
T7 construct: expressed in transfected cells; host or cells: HEK293T cells (transient)
Description: as §1, §2, §3, §4

[8] = biological target: T8, hS1P5 (Homo sapiens, UniProt Q9H228); assay: [γ-35S]GTP binding assay, HEK293T cell membranes, S1P5; conditions: read-out: EC50 Values (nM) for S1P Analogues at Recombinant S1P Receptors, hS1P5; GTPγS binding; overexpressed human HEK293 cells
T8 construct: expressed in transfected cells; host or cells: HEK293T cells (transient, calcium phosphate)
Description: as §1, §2, §3, §4

[9] = test system: S1P receptors; assay: [γ-35S]GTP binding assay, recombinant S1P receptors in general; conditions: each receptor
Description: as §5

T7 sequence (P21453 whole entry): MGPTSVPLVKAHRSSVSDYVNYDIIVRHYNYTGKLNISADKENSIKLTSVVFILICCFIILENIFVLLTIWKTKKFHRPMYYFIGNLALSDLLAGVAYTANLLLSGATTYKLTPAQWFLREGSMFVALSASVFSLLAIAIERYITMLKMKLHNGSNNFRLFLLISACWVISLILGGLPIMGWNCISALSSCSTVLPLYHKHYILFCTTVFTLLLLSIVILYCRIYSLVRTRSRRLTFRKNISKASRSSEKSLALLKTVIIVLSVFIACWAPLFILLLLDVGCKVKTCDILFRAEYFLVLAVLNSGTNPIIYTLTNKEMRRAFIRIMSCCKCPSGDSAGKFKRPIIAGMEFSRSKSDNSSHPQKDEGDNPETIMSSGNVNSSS
T2 sequence (Q99500 whole entry): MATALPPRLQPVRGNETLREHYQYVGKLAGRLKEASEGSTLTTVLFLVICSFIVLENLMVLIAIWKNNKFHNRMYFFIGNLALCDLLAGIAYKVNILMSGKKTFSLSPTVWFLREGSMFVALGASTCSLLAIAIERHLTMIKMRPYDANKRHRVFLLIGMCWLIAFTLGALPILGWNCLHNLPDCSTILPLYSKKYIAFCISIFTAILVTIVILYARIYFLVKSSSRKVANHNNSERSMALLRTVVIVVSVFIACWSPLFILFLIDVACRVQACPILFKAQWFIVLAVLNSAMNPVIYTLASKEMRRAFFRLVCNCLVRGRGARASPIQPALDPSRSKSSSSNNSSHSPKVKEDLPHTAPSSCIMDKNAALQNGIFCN
T1 sequence (O95136 whole entry): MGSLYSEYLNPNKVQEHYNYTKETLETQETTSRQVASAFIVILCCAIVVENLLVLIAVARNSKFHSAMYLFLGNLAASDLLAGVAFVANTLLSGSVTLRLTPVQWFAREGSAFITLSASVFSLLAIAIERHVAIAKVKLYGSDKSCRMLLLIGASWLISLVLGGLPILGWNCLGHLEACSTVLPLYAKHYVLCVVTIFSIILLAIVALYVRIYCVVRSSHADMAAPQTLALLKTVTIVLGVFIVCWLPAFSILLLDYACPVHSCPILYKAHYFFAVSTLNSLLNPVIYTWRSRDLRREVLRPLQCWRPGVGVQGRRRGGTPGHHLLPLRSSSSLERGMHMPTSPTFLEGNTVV
T6 sequence (Q91X56 whole entry): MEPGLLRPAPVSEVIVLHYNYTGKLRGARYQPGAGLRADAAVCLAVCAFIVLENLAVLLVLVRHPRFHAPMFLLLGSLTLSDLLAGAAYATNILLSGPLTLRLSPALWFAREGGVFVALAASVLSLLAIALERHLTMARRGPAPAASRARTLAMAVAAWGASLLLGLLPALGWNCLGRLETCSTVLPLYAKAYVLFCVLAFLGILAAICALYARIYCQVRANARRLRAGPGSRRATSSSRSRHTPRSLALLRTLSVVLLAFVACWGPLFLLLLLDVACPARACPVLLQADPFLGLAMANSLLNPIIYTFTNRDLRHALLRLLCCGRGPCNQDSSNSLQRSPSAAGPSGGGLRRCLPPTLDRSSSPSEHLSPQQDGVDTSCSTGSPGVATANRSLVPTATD
T8 sequence (Q9H228 whole entry): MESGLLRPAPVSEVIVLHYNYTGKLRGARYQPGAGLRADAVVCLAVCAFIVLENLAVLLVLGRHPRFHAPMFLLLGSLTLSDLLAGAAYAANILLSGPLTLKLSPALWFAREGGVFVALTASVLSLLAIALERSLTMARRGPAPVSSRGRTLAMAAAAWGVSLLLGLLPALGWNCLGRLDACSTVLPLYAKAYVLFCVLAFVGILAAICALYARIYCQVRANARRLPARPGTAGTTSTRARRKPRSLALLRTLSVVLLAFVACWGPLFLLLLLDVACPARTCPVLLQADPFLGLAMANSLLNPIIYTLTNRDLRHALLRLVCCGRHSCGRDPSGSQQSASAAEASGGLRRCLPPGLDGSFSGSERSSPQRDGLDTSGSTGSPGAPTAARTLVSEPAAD

What does the source list for `CCCCCCCCc1ccccc1NC(=O)[C@H](N)COP(=O)(O)O` [VPC23089]?
activity at the S1P2 receptor [1]: inactive; also recorded: failed to show significant activity; agonism or inverse agonism (antagonism) at the S1P3 receptor [2]: inverse agonists

Which “activity at the S1P2 receptor” value [1] does the source give for `CCCCCCc1cccc(NC(=O)[C@H](N)COP(=O)(O)O)c1` [VPC23031] here?
The value was “inactive; also recorded: failed to show significant activity”.

And the “agonism or inverse agonism (antagonism) at the S1P3 receptor” value (shortened to “agonism or inverse agonism (antagonism)”) [2]?
The value was “inverse agonists”.

With `CCCCCCCCCCc1cccc(NC(=O)[C@H](N)CO)c1` [VPC23065] as the compound, how does the “activity at the S1P2 receptor” value [1] read?
Its value is “inactive; also recorded: failed to show significant activity”.

And the “agonist activity at S1P receptors” value [3]?
Its value is “significant agonist activity”.

What about the “agonist activity at the S1P4 receptor” value [4] of the same compound?
The value was “good agonist activity”.

For `CCCCCCCCCCCCCCNC(=O)[C@@H](N)COP(=O)(O)O` [VPC22051], which EC50 [5] is on record?
The EC50 was greater than 5000 nM.

And the EC50 [6]?
The EC50 was greater than 5000 nM.

And the EC50 [7]?
Its EC50 is 322 nM.

And the EC50 [1]?
Its EC50 is 2760 nM.

What about the EC50 [2] of the same compound?
The EC50 was 602 nM.

What about the EC50 [8] of the same compound?
The EC50 was greater than 5000 nM.

`CCCCCCCCc1cccc(NC(=O)[C@H](N)COP(=O)(O)O)c1` [VPC23019] was tested. Which “antagonism at S1P1” value ([7]; competition with S1P) did it give?
Its value is “antagonism”.

And the “activity at the S1P2 receptor” value [1]?
The value was “inactive; also recorded: failed to show significant activity”.

And the “agonism or inverse agonism (antagonism)” value [2]?
The value was “inverse agonists”.

Which results are given for `CCCCCCCCCCCCCCOC(=O)[C@@H](N)COP(=O)(O)O` [VPC22053]?
EC50 [5]: > 5000 nM; EC50 [6]: 2010 nM; less potent than enantiomer VPC22135 at the S1P1 receptor [7]: more than 1 log order; EC50 [7]: 397 nM; EC50 [1]: 2680 nM; less potent than enantiomer VPC22135 at the S1P3 receptor [2]: more than 1 log order; EC50 [2]: 862 nM; EC50 [8]: 1610 nM

Which “increase of GTPγS binding at each receptor” value [9] does the source give for `CCCCCCCCCCCCC/C=C/[C@@H](O)[C@@H](N)COP(=O)(O)O` [Compound S1P, Sphingosine-1-phosphate, reference compound] here?
The value was 2-5 fold.

`CCCCCCCCCCCCCCNC(=O)[C@H](N)COP(=O)(O)O` [VPC22135] was tested. Which “potency compared with S1P at the human S1P1 receptor” value [7] did it give?
Its value is “approached the potency of S1P”.

And the “potency compared with S1P at the human S1P3 receptor” value [2]?
Its value is “approached the potency of S1P”.

With `CCCCCCCCc1ccccc1NC(=O)[C@H](N)CO` [VPC23087] as the compound, how does the “activity at the S1P2 receptor” value [1] read?
The value was “inactive; also recorded: failed to show significant activity”.

What about the “agonist activity at S1P receptors” value [3] of the same compound?
Its value is “significant agonist activity”.

What about the “agonist activity at the S1P4 receptor” value [4] of the same compound?
Its value is “good agonist activity”.

For `CCCCCCCCCCc1cccc(NC(=O)[C@H](N)COP(=O)(O)O)c1` [VPC23069], which “activity at the S1P2 receptor” value [1] is on record?
The value was “inactive; also recorded: failed to show significant activity”.

What about the “agonism or inverse agonism (antagonism)” value [2] of the same compound?
The value was “agonism”.

With `CCCCCCCCCc1cccc(NC(=O)[C@H](N)CO)c1` [VPC23075] as the compound, how does the “activity at the S1P2 receptor” value [1] read?
The value was “inactive; also recorded: failed to show significant activity”.

What about the “agonist activity at S1P receptors” value [3] of the same compound?
The value was “significant agonist activity”.

What about the “agonist activity at the S1P4 receptor” value [4] of the same compound?
The value was “good agonist activity”.

How did the “activity at the S1P2 receptor” value [1] turn out when `CCCCCCCCCc1cccc(NC(=O)[C@H](N)COP(=O)(O)O)c1` [VPC23079] was run?
Its value is “inactive; also recorded: failed to show significant activity”.

And the “agonism or inverse agonism (antagonism)” value [2]?
The value was “agonism”.

Reference: patent publication US7638637B2, “Orally available sphingosine 1-phosphate receptor agonists and antagonists” (University of Virginia Patent Foundation, priority 2003, dated 2009)
